Structures can show the parent of a compound that is named as a salt.
Target: T1, CRF receptor (Rattus norvegicus, UniProt P35353)
T1 sequence (P35353 24-415): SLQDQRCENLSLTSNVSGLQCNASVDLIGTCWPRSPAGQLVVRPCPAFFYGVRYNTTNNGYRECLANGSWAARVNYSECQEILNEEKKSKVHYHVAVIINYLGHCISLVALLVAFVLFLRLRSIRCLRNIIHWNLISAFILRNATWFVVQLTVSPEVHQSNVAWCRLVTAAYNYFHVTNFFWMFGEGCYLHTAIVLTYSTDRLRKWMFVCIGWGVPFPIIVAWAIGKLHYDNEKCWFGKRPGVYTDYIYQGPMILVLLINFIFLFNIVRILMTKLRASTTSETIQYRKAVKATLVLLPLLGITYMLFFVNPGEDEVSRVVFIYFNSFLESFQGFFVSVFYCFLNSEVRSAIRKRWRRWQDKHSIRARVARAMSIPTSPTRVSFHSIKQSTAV
Test: CRF receptor Binding Assay ([125I]-CRF, rat frontal cortical membranes)
Conditions: 125I-CRF 0.2 nM; rat frontal cortical membranes 0.3 mg-protein/ml; 25° C., 2 hours; nonspecific binding with 1 μM CRF; read-out: IC50 (concentration of the test compound which 50% inhibits the 125I-CRF binding)

Row | SMILES | IC50 [nM]
1 | CCN(c1nc(C)cc(N2CC=C(c3ccccc3)CC2)n1)c1ccc(C(C)C)cc1Br [Compound 1-01, 2-[N-(2-bromo-4-isopropylphenyl)-N-ethylamino]-4-(4-phenyl-1,2,3,6-tetrahydropyridin-1-yl)-6-methylpyrimidine hydrochloride] | 66.1
2 | CCN(c1nc(C)cc(N2CC=C(c3cccc(F)c3)CC2)n1)c1ccc(C(C)C)cc1Br [Compound 1-02] | 22.1
3 | C#CCN(c1nc(C)cc(N2CC=C(c3cccc(F)c3)CC2)n1)c1ccc(C(C)C)cc1Br [Compound 1-03] | 32.2
4 | CCN(c1nc(C)cc(N2CC=C(c3cccc(F)c3)CC2)n1)c1ccc(C(C)C)cc1I [Compound 1-05] | 27.6
5 | CCN(c1nc(C)cc(N2CC=C(c3cccc(F)c3)CC2)n1)c1ccc(C(C)C)cc1SC [Compound 1-06] | 10.5
6 | C#CCN(c1nc(C)cc(N2CC=C(c3cccc(F)c3)CC2)n1)c1ccc(C(C)C)cc1SC [Compound 1-08] | 89
7 | CCN(c1nc(C)cc(N2CC=C(c3cccc(F)c3)CC2)n1)c1ccc(N(C)C)cc1Br [Compound 1-12] | 38.5
8 | CCN(c1nc(C)cc(N2CC=C(c3cccc(F)c3)CC2)n1)c1c(C)cc(C)cc1C [Compound 1-14] | 73.9
9 | CCN(c1nc(C)cc(N2CC=C(c3ccc(F)cc3)CC2)n1)c1ccc(C(C)C)cc1Br [Compound 1-15] | 79.3
10 | CCN(c1nc(C)cc(N2CC=C(c3ccc(F)cc3)CC2)n1)c1ccc(C(C)C)cc1SC [Compound 1-16] | 81.1
11 | CCN(c1nc(C)cc(N2CC=C(c3ccc(F)cc3)CC2)n1)c1ccc(N(C)C)cc1Br [Compound 1-17] | 73.9
12 | CCN(c1nc(C)cc(N2CC=C(c3ccc(F)c(F)c3)CC2)n1)c1ccc(C(C)C)cc1Br [Compound 1-20] | 49.8
13 | CCN(c1nc(C)cc(N2CC=C(c3ccc(F)c(F)c3)CC2)n1)c1ccc(C(C)C)cc1SC [Compound 1-21] | 81.1
14 | CCN(c1nc(C)cc(N2CC=C(c3ccc(F)c(F)c3)CC2)n1)c1ccc(N(C)C)cc1Br [Compound 1-22] | 89
15 | CCN(c1nc(C)cc(N2CC=C(c3cc(F)cc(F)c3)CC2)n1)c1ccc(C(C)C)cc1Br [Compound 1-25] | 46.4
16 | CCN(c1nc(C)cc(N2CC=C(c3cc(F)cc(F)c3)CC2)n1)c1ccc(C(C)C)cc1SC [Compound 1-26] | 35.1
17 | C#CCN(c1nc(C)cc(N2CC=C(c3cc(F)cc(F)c3)CC2)n1)c1ccc(C(C)C)cc1SC [Compound 1-27] | 12.6
18 | CCN(c1nc(C)cc(N2CC=C(c3cccc(Cl)c3)CC2)n1)c1ccc(C(C)C)cc1Br [Compound 1-30, 2-[N-(2-bromo-4-isopropylphenyl)-N-ethylamino]-4-[4-(3-chlorophenyl)-1,2,3,6-tetrahydropyridin-1-yl]-6-methylpyrimidine hydrochloride] | 24.8
19 | C#CCN(c1nc(C)cc(N2CC=C(c3cccc(Cl)c3)CC2)n1)c1ccc(C(C)C)cc1Br [Compound 1-31] | 96.2
20 | CCN(c1nc(C)cc(N2CC=C(c3cccc(Cl)c3)CC2)n1)c1ccc(N(C)C)cc1Br [Compound 1-33] | 55.9
21 | CCN(c1nc(C)cc(N2CC=C(c3cccc(Cl)c3)CC2)n1)c1ccc(C(C)C)cc1SC [Compound 1-34] | 20.1
22 | C#CCN(c1nc(C)cc(N2CC=C(c3cccc(Cl)c3)CC2)n1)c1ccc(C(C)C)cc1SC [Compound 1-36] | 51.5
23 | CCN(c1nc(C)cc(N2CC=C(c3ccc(Cl)cc3)CC2)n1)c1ccc(C(C)C)cc1Br [Compound 1-41] | 38.9
24 | C#CCN(c1nc(C)cc(N2CC=C(c3ccc(Cl)cc3)CC2)n1)c1ccc(C(C)C)cc1Br [Compound 1-46] | 31.3
25 | CCN(c1nc(C)cc(N2CC=C(c3ccc(Cl)cc3)CC2)n1)c1ccc(C(C)C)cc1SC [Compound 1-51] | 21.5
26 | CCN(c1nc(C)cc(N2CC=C(c3ccc(Cl)cc3)CC2)n1)c1ccc(C2CCCC2)cc1SC [Compound 1-54] | 65.8

Row | SMILES | IC50 [nM]
27 | CCN(c1nc(C)cc(N2CC=C(c3ccc(Cl)cc3)CC2)n1)c1ccc(N(C)C)cc1Br [Compound 1-55] | 45.4
28 | CCN(c1nc(C)cc(N2CC=C(c3ccc(Cl)cc3)CC2)n1)c1ccc(Br)cc1Br [Compound 1-57] | 65.8
29 | CCN(c1nc(C)cc(N2CC=C(c3ccc(Cl)c(Cl)c3)CC2)n1)c1ccc(C(C)C)cc1Br [Compound 1-61] | 67.3
30 | CCN(c1nc(C)cc(N2CC=C(c3ccc(Cl)c(Cl)c3)CC2)n1)c1ccc(C(C)C)cc1SC [Compound 1-62] | 32
31 | CCN(c1nc(C)cc(N2CC=C(c3cccc(C(F)(F)F)c3)CC2)n1)c1ccc(C(C)C)cc1Br [Compound 1-66] | 46.4
32 | CCN(c1nc(C)cc(N2CC=C(c3cccc(C(F)(F)F)c3)CC2)n1)c1ccc(N(C)C)cc1Br [Compound 1-67] | 61.4
33 | CCN(c1nc(C)cc(N2CC=C(c3cccc(C(F)(F)F)c3)CC2)n1)c1ccc(C(C)C)cc1SC [Compound 1-68] | 38.5
34 | CCN(c1nc(C)cc(N2CC=C(c3cccc(C(F)(F)F)c3)CC2)n1)c1c(C)cc(C)cc1C [Compound 1-71] | 55.9
35 | CCN(c1nc(C)cc(N2CC=C(c3cccc(C)c3)CC2)n1)c1ccc(C(C)C)cc1Br [Compound 1-73] | 65.8
36 | CCN(c1nc(C)cc(N2CC=C(c3ccc(C)cc3)CC2)n1)c1ccc(C(C)C)cc1Br [Compound 1-74] | 62.9
37 | CCN(c1nc(C)cc(N2CC=C(c3ccc(OC)cc3)CC2)n1)c1ccc(C(C)C)cc1Br [Compound 1-77] | 82.4
38 | CCN(c1nc(C)cc(N2CC=C(c3cccs3)CC2)n1)c1ccc(C(C)C)cc1Br [Compound 1-78, 2-[N-(2-bromo-4-isopropylphenyl)-N-ethylamino]-4-[4-(thiophen-2-yl)-1,2,3,6-tetrahydropyridin-1-yl]-6-methylpyrimidine] | 52.2
39 | CCN(c1nc(C)cc(N2CC=C(c3ccco3)CC2)n1)c1ccc(C(C)C)cc1Br [Compound 1-79, 2-[N-(2-bromo-4-isopropylphenyl)-N-ethylamino]-4-[4-(furan-2-yl)-1,2,3,6-tetrahydropyridin-1-yl]-6-methylpyrimidine] | 44.5
40 | CCN(c1nc(C)cc(N2CCC=C(c3ccccc3)C2)n1)c1ccc(C(C)C)cc1Br [Compound 2-01, 2-[N-(2-bromo-4-isopropylphenyl)-N-ethylamino]-4-(5-phenyl-1,2,3,6-tetrahydropyridin-1-yl)-6-methylpyrimidine hydrochloride] | 89
41 | CCN(c1nc(C)cc(N2CCC=C(c3cccc(F)c3)C2)n1)c1ccc(C(C)C)cc1Br [Compound 2-02] | 96.2
42 | CCN(c1nc(C)cc(N2CCC=C(c3cccc(F)c3)C2)n1)c1ccc(C(C)C)cc1SC [Compound 2-03] | 82.3
43 | CCN(c1nc(C)cc(N2CCC=C(c3ccc(F)cc3)C2)n1)c1ccc(C(C)C)cc1Br [Compound 2-04] | 82.3
44 | CCN(c1nc(C)cc(N2CCC=C(c3ccc(F)cc3)C2)n1)c1ccc(C(C)C)cc1SC [Compound 2-05] | 27.6
45 | CCN(c1nc(C)cc(N2CCC=C(c3ccc(F)cc3)C2)n1)c1ccc(N(C)C)cc1Br [Compound 2-06] | 96.2
46 | C#CCN(c1nc(C)cc(N2CCC=C(c3ccc(F)cc3)C2)n1)c1ccc(C(C)C)cc1SC [Compound 2-07] | 20.2
47 | CCN(c1nc(C)cc(N2CCC=C(c3cccc(Cl)c3)C2)n1)c1ccc(C(C)C)cc1SC [Compound 2-09] | 97.7
48 | CCN(c1nc(C)cc(N2CCC=C(c3cc(F)cc(F)c3)C2)n1)c1ccc(C(C)C)cc1SC [Compound 2-13] | 82.3
49 | CCN(c1nc(C)cc(N2CCC=C(c3ccccc3C)C2)n1)c1ccc(C(C)C)cc1SC [Compound 2-15, 2-[N-(4-isopropyl-2-methylthiophenyl)-N-ethylamino]-4-[5-(2-methylphenyl)-1,2,3,6-tetrahydropyridin-1-yl]-6-methylpyrimidine hydrochloride] | 10.8
50 | CCN(c1nc(C)cc(N2CCC=C(c3cccc(C)c3)C2)n1)c1ccc(C(C)C)cc1SC [Compound 2-18] | 70.4
51 | CCN(c1nc(C)cc(N2CCC=C(c3ccc(C)cc3)C2)n1)c1ccc(C(C)C)cc1SC [Compound 2-19] | 70.4

Source: patent publication US6187781A, “4-Tetrahydropyridylpyrimidine derivatives” (Taisho Pharmaceutical Co., Ltd., priority 1997, dated 2001)
